Measurements reported in US11759445B2, “Use of Rivastigmine in preparation of anti-radiation medicament” (priority 2020, dated 2023).

Assays:
crypt stem cells Lgr5+ = assay: In vitro medicament screening experiment on crypt stem cells Lgr5+ of mice (GFP fluorescence after 10 Gy irradiation); assay type: cell-based; conditions: Mus musculus, light or radiation study, 240 h, 10 μM medicament, GFP fluorescence 10 d after irradiation, read-out: increment of the Lgr5+ stem cells compared with IR groups
From the text: 1.2.1 In Vitro Medicament Screening Experiment on Crypt Stem Cells Lgr5^+ of Mice
1) Lgr5-GFP mice were sacrificed by cervical dislocation, and enterocoelia was opened and the whole small intestine was taken out, and then the small intestine was put to a pre-cooled HBSS buffer solution to remove mesentery and adipose tissues as much as possible, and dissected longitudinally to wash out contents of the small intestine.
2) Villi and contents inside the intestinal cavity were scraped by a glass slide, and then the remaining intestinal cavity was washed for once to twice.
3) The whole small intestine was quickly cut into 5 mm intestinal segments.
4) The intestinal segments were transferred to a 50 mL centrifugal tube, and 25 mL HBSS and 250 μL penicillin/streptomycin solution were added for incubation for 10 min at room temperature, and then the centrifugal tube was slightly inverted to mix evenly for 2-3 times.
5) Supernatant was absorbed, and 10 mL new HBSS was added to wash the intestinal segments for 2-3 times till the final intestinal segments were cleaned thoroughly, then a 70 μm filter sieve was used for filtering to retain the remaining intestinal segments.
6) The intestinal segments were transferred to a 50 mL centrifugal tube, and added to a 10 mL pre-blended digestive solution for incubation for 5 min at room temperature.
7) The centrifugal tube was shaken violently or swirled for several seconds, and then a 70 μm filter sieve was used for filtering.
8) The intestinal segments were transferred to a new 50 mL centrifugal tube, and a 10 mL digestive solution was added for incubation on ice for 30 min, and then the centrifugal tube was shaken violently or swirled for several seconds, and then a 70 μm filter sieve was used for filtering. A black 96-well plate was put on an incubator for preheating during the incubation on ice.
9) The intestinal segments were transferred to a new 50 mL centrifugal tube, and 10 mL HBSS was added, then the centrifugal tube was shaken violently or swirled for several seconds, and a 70 μm filter sieve was used for filtering to retain filtrate.
10) […] for 10 min at 4° C.
11) Supernatant was removed, and crypt cells were precipitated and resuspended by a crypt cell culture solution, and then cell counting was performed microscopically.
12) Cells were diluted by a ratio of the crypt cell culture solution to matrigel=1:1 (v/v), so as to ensure that per 10 μL of mixed liquor contained about 100 crypt cells.
13) The preheated black 96-well plate was taken out, and 10 μL mixed liquor was added to the center of each well, and then the well plate was put to an incubator for 10 min at 37° C.
14) After the matrigel was solidified, each medicament in Bioactive Compound Library (790 types) was diluted by a medium to a final concentration of 10 μM, and then 100 μL was added to per well.
15) The 96-well plate was put on a multi-mode microplate reader to read fluorescence intensity under the conditions of excitation wavelength at 485 nm and emission wavelength at 528 nm, and to record the values on the same day.
16) Crypt cells were irradiated with 10 Gy radiation, and the fluorescence intensity for consecutive 10 d after irradiation was recorded; afterwards, the background fluorescence intensity of a blank control was removed, and a fluorescence intensity curve was drawn; and the test results were shown in FIGS. 1-4.
Crypt stem cells Lgr5^+ separated from Lgr5-GFP mice in vivo carried GFP fluorescence, and the change of the mean fluorescence intensity (MFI) represented the proliferation of crypt stem cells Lgr5*. […]

C57BL/6 mice = assay: Survival of mice at a lethal dose (10 Gy whole body irradiation) after intraperitoneal medicament; assay type: in vivo, mouse; conditions: for influence on the survival time of mice after receiving irradiation: i.p. half an hour before 10 Gy whole body irradiation
From the text: 1.2.2 Experiment for Verifying the Survival Rate of Mice at a Lethal Dose
Mice were subjected to 10 Gy whole body irradiation with an X-ray biological irradiator in Department of Medicine having a dose rate of 1.5 Gy/min; and before irradiation, mice were intraperitoneally injected the medicament screened out via an in vitro experiment, and then continuously raised in a temporary storage room of the animal center after irradiation.
4 to 6 week-age C57BL/6 mice were selected as experimental subjects, and divided into control groups and experimental groups, and subjected to 10 Gy whole body irradiation with a dose rate of 1.5 Gy/min; mice in the experimental subjects were respectively intraperitoneally injected the medicaments screened half an hour before irradiation, and the survival time was recorded after irradiation. Among the medicaments, water-soluble Don-H, Pra-C and DL-Pan are dissolved by normal saline, and others were dissolved by 5 g/100 mL DMSO+edible oil. The medicament was prepared into a stock solution having a corresponding concentration according to the volume that 20 g mice were intraperitoneally injected 100 μL medicament.

Structure (SMILES) | fold induction at 10 µM (crypt stem cells Lgr5+) | influence on the survival time of mice after receiving irradiation (C57BL/6 mice; dose not stated) | also measured
CCCOc1ccn2c(C(C)=O)cc(-c3ccccc3S(C)(=O)=O)c2c1 [GSK2801] | 14.7 | no statistical significance | 
N#C[C@@H]1C[C@@H]2C[C@@H]2N1C(=O)[C@@H](N)C12CC3CC(CC(O)(C3)C1)C2 [Saxagliptin hydrate] | 15.9 | no statistical significance | 
C[n+]1ccccc1/C=N/O [Pralidoxime chloride] | 4.8 |  | 
C[C@H](CCC(=O)O)[C@H]1CC[C@H]2[C@@H]3C(=O)C[C@@H]4CC(=O)CC[C@]4(C)[C@H]3CC(=O)[C@]12C [Dehydrocholic acid] | 3.4 |  | survival time of the mice (C57BL/6 mice; 10 mg/kg i.p. half an hour before 10 Gy whole body irradiation): did not improve the survival time; survival time of the mice (C57BL/6 mice; 20 mg/kg i.p. half an hour before 10 Gy whole body irradiation): did not improve the survival time; extension of the death time of the mice (C57BL/6 mice; 40 mg/kg i.p. half an hour before 10 Gy whole body irradiation, P<0.01): 2 days; survival time of the mice (C57BL/6 mice; 60 mg/kg i.p. half an hour before 10 Gy whole body irradiation): did not improve the survival time; survival time of the mice (C57BL/6 mice; 80 mg/kg i.p. half an hour before 10 Gy whole body irradiation): did not improve the survival time; survival time of the mice (C57BL/6 mice; 100 mg/kg i.p. half an hour before 10 Gy whole body irradiation): did not improve the survival time
CCN(C)C(=O)Oc1cccc([C@H](C)N(C)C)c1 [Rivastigmine] | 14.2 |  | survival of mice after 30 d (C57BL/6 mice; 1 mg/kg i.p. before 10 Gy whole body irradiation): still survival mice after 30 d; survival of mice after 30 d (C57BL/6 mice; 2 mg/kg i.p. before 10 Gy whole body irradiation): still survival mice after 30 d; survival rate (C57BL/6 mice; 2 mg/kg i.p. before 10 Gy whole body irradiation, after 30 d, P<0.001 vs control group): greater than 40%; survival rate of the mice (C57BL/6 mice; intraperitoneally injected, 10 Gy whole body irradiation, 30 days post irradiation, dose not stated): greater than 40%
CC(C)(CO)C(O)C(=O)NCCCO (racemic) [DL-Panthenol] | 3.5 | no statistical significance | 
CN1CCCCC1CCN1c2ccccc2Sc2ccc([S+](C)[O-])cc21 (stereo not drawn) [Mesoridazine Besylate] | 4.2 | no statistical significance | 
